In brackets after ≈: the same amount, converted by molar mass. Where two headings read alike, the source gives them in different places.
What was measured:
[1] = system: Bacteroides fragilis; assay: Antimicrobial agar dilution test of anaerobic bacteria (MIC); assay type: cell-based; conditions: 48 h
[2] = system: E coli; assay: Microdilution antimicrobial susceptibility test (MIC); assay type: cell-based; conditions: broth microdilution, 18-24 h, MIC = 90% inhibition of growth; read-out: MIC E coli MIC2
[3] = system: M. catarrhalis; assay: as above; assay type: cell-based; conditions: Moraxella catarrhalis; broth microdilution, 18-24 h, MIC = 90% inhibition of growth; read-out: MIC M. catarrhalis MIC2
[4] = system: E coli (ImpA); assay: as above; assay type: cell-based; conditions: broth microdilution, 18-24 h, MIC = 90% inhibition of growth; read-out: MIC E coli (ImpA) MIC9
Method: Microdilution Antimicrobial Susceptibility Test Assay
Stock solutions of tested compounds were prepared in N,N-dimethylformamide (DMF) at a concentration of 5 mg/mL. Working solutions of the tested compounds were then prepared from the stock solutions, in Mueller-Hinton broth (MHB) with a starting concentration of 64 μg/mL.
Bacterial inocula were prepared from overnight culture (i.e., one fresh colony from agar plate in 5 ml MHB; H. influenzae was grown in MHB with the addition of yeast extract, haematin, and NAD), centrifuged 2×5 min/3000 rpm (for S. pneumoniae and H. influenzae, 2×10 min/3000 rpm), and dispensed in 5 ml of fresh MHB each time, such that the bacterial suspension is diluted to obtain 100 colony forming units (cfu) in a microplate well (100 μl total volume).
Microplate wells were filled with two-fold dilutions of test compound (50 Al), starting with 64 μg/ml. Wells were then filled with 50 μl of bacterial inoculum (final volume: 100 μl/well). The plates were incubated at 37° C. for 18-24 hours (S. pneumoniae was grown in a CO2-enriched atmosphere).

[5] = system: S cerevisiae; assay: as above; assay type: cell-based; conditions: broth microdilution, 18-24 h, MIC = 90% inhibition of growth; read-out: MIC S cerevisiae MIC7
[6] = system: Bacteroides thetaiotaomicron; assay type: cell-based; conditions: agar dilution, anaerobic, 48 h
[7] = system: S pneumoniae; assay: Microdilution antimicrobial susceptibility test (MIC); assay type: cell-based; conditions: broth microdilution, 18-24 h, CO2-enriched atmosphere, MIC = 90% inhibition of growth; read-out: MIC S pneumoniae MIC6
[8] = system: E faecalis; assay: as above; assay type: cell-based; conditions: broth microdilution, 18-24 h, MIC = 90% inhibition of growth; read-out: MIC E faecalis MIC2
[9] = system: H influenzae; assay: as above; assay type: cell-based; conditions: broth microdilution, 18-24 h, MIC = 90% inhibition of growth; read-out: MIC H influenzae MIC4
[10] = system: E. coli; assay: Systemic bacterial infection model, mice infected with E. coli
[11] = system: S aureus; assay: Microdilution antimicrobial susceptibility test (MIC); assay type: cell-based; conditions: broth microdilution, 18-24 h, MIC = 90% inhibition of growth; read-out: MIC S aureus MIC2
[12] = system: Bacteroides vulgatus; assay: Antimicrobial agar dilution test of anaerobic bacteria (MIC); assay type: cell-based; conditions: 48 h
[13] = system: S. aureus; assay: Systemic bacterial infection model, mice infected with S. aureus
[14] = system: Clostridium perfringens; assay type: cell-based; conditions: disk 200 μg, anaerobic, 24-48 h
[15] = system: Clostridium sp.; assay type: cell-based; conditions: disk 200 μg, anaerobic, 24-48 h
[16] = system: Peptostreptococcus sp; assay type: cell-based; conditions: Peptostreptococcus sp (fresh abdominal aspirate); disk 200 μg; anaerobic, 24-48 h
[17] = system: Bacteroides fragilis; assay type: cell-based; conditions: Bacteroides fragilis; disk 200 μg; anaerobic, 24-48 h

Cn1c(S)nnc1-c1ccc([N+](=O)[O-])o1 [Compound 122, 5-[2-(5-Nitro)furyl]-4-methyl-4H-1,2,4-triazole-3-thiol]
MIC Bacteroides fragilis ([1]; first B. fragilis column): < 0.125 µg/mL
MIC Bacteroides fragilis ([1]; second B. fragilis column): < 0.125 µg/mL
MIC Bacteroides fragilis ([1]; third B. fragilis column): < 0.125 µg/mL
MIC [2]: 4 µg/mL (≈ 17.7 µM)
MIC [3]: < 0.12 µg/mL
MIC [4]: 0.25 µg/mL (≈ 1.11 µM)
MIC [5]: 32 µg/mL (≈ 141 µM)
MIC Bacteroides thetaiotaomicron [6]: < 0.125 µg/mL
MIC [7]: 4 µg/mL (≈ 17.7 µM)
MIC [8]: 2 µg/mL (≈ 8.84 µM)
MIC [9]: 8 µg/mL (≈ 35.4 µM)
Survival (%) ([10]; Study #3, 25 mg/kg IP QD × 3, 6 days observation): 0%
Survival (%) ([10]; Study #3, 50 mg/kg IP QD × 3, 6 days observation): 60%
Survival (%) ([10]; Study #3, 75 mg/kg IP QD × 3, 6 days observation): 20%
Survival (%) ([10]; Study #3, 100 mg/kg IP QD × 3, 6 days observation): 0%
MIC [11]: 2 µg/mL (≈ 8.84 µM)
MIC Bacteroides vulgatus [12]: < 0.125 µg/mL
Survival (%) ([13]; Study #2, 25 mg/kg IP QD × 3, 6 days observation): 0%
Survival (%) ([13]; Study #2, 50 mg/kg IP QD × 3, 6 days observation): 30%
Survival (%) ([13]; Study #2, 75 mg/kg IP QD × 3, 6 days observation): 10%
Survival (%) ([13]; Study #2, 100 mg/kg IP QD × 3, 6 days observation): 0%
Inhibition zones ([14]; Clostridium perfringens (fresh wound isolate)): 30 mm
Inhibition zones ([14]; Clostridium perfringens, diameter includes disk): 36 mm*
Inhibition zones ([15]; Clostridium sp. (first listed strain)): 20 mm
Inhibition zones ([15]; Clostridium sp. (second listed strain)): 40 mm
Inhibition zones [16]: 15 mm
Inhibition zones [17]: 41 mm

Reference: patent US20030166645A1, “Novel nitrofuran-containing heterocyclic compounds and uses thereof” (priority 2001, published 2003)
